According to ChEMBL document CHEMBL1201862, “PubChem BioAssay data set” (2004):
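Cultured in 96-well plates, cells were exposed to test compound for 48 hours across five concentrations. The concentration for 50% growth inhibition is given as GI50.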 Active and inactive are the calls of the source. Cut-off read from the data, not from the text of the source: active = GI50 up to about 1.1 µM and inactive = higher.

How the values were obtained:
Assay in all cases: NCI-60 cell line screen, 48 h
OVCAR-5 = tested on: OVCAR-5
UO-31 = tested on: UO-31
DMS-273 = tested on: DMS-273
TK-10 = tested on: TK-10
SK-MEL-5 = tested on: SK-MEL-5
Malme-3M = tested on: Malme-3M
HT-29 = tested on: HT-29
CAKI-1 = tested on: CAKI-1
IGROV-1 = tested on: IGROV-1
RPMI-8226 = tested on: RPMI-8226
U-251 = tested on: U-251
SK-OV-3 = tested on: SK-OV-3
HCT-116 = tested on: HCT-116
OVCAR-3 = tested on: OVCAR-3
HCC 2998 = tested on: HCC 2998
PC-3 = tested on: PC-3
NCI/ADR-RES = tested on: NCI/ADR-RES
T47D = tested on: T47D
SR = tested on: SR
BT-549 = tested on: BT-549

Measured: GI50

CC1=NN(C(=O)CC(=O)Nc2ccccc2F)C(=O)C1/N=N/c1ccccc1[N+](=O)[O-] (configuration not stated)
inactive: OVCAR-5 > 100 µM | UO-31 81.1 µM | DMS-273 49.9 µM | TK-10 > 100 µM | SK-MEL-5 17.9 µM | Malme-3M > 100 µM | HT-29 > 100 µM | CAKI-1 75.5 µM | IGROV-1 > 100 µM | RPMI-8226 > 100 µM | U-251 > 100 µM | SK-OV-3 > 100 µM | HCT-116 > 100 µM | OVCAR-3 96.4 µM

C=C(C#N)C1OCC2OC(C)(C)OC21 (configuration not stated)
inactive: OVCAR-5 19.8 µM | UO-31 40.5 µM | DMS-273 19.1 µM | TK-10 34 µM | SK-MEL-5 17.3 µM | HCC 2998 26.7 µM | HT-29 34.9 µM | CAKI-1 23.4 µM | IGROV-1 37.4 µM | U-251 32.7 µM | SK-OV-3 50.6 µM | HCT-116 18.7 µM | OVCAR-3 21.7 µM

CC1(Cl)C(=O)NC(=O)N(C2CC(N=[N+]=[N-])C(CO)O2)C1N=[N+]=[N-] (configuration not stated)
inactive: OVCAR-5 > 100 µM | UO-31 > 100 µM | DMS-273 > 100 µM | TK-10 > 100 µM | SK-MEL-5 > 100 µM | Malme-3M > 100 µM | HCC 2998 > 100 µM | HT-29 > 100 µM | CAKI-1 > 100 µM | IGROV-1 > 100 µM | RPMI-8226 > 100 µM | U-251 > 100 µM | SK-OV-3 > 100 µM | OVCAR-3 > 100 µM

COc1ccc2c(c1O)[C@@]13C=C(O)C(=O)C=C1[C@@H](C2)N(C)CC3
inactive: OVCAR-5 > 100 µM | UO-31 51.9 µM | PC-3 34.8 µM | TK-10 > 100 µM | SK-MEL-5 60.3 µM | Malme-3M 72.6 µM | NCI/ADR-RES 51.9 µM | HCC 2998 > 100 µM | T47D 63.4 µM | HT-29 31.6 µM | SR 42.7 µM | CAKI-1 88.5 µM | BT-549 > 100 µM | IGROV-1 61.1 µM | RPMI-8226 > 100 µM | U-251 86.1 µM | SK-OV-3 > 100 µM | HCT-116 34.1 µM | OVCAR-3 26.9 µM

Clc1ccc2c(SCC3CO3)c3ccccc3nc2c1 (configuration not stated)
inactive: OVCAR-5 4.36 µM | UO-31 1.76 µM | PC-3 2.65 µM | TK-10 1.74 µM | SK-MEL-5 4.84 µM | Malme-3M 2.04 µM | NCI/ADR-RES 2.43 µM | HCC 2998 4.81 µM | T47D 1.66 µM | HT-29 1.64 µM | SR 2.04 µM | CAKI-1 1.49 µM | BT-549 6.03 µM | IGROV-1 1.33 µM | RPMI-8226 2.42 µM | U-251 1.84 µM | SK-OV-3 21.1 µM | HCT-116 1.66 µM | OVCAR-3 1.73 µM

Cc1ccc(CC2(OCCN(C)C)CCC(C(C)(C)C)CC2)cc1 (configuration not stated)
inactive: OVCAR-5 3.3 µM | UO-31 5.33 µM | PC-3 3.89 µM | TK-10 6.87 µM | SK-MEL-5 1.58 µM | Malme-3M 1.99 µM | NCI/ADR-RES 7.98 µM | HCC 2998 1.9 µM | T47D 2.68 µM | HT-29 2.23 µM | SR 2.08 µM | CAKI-1 4.21 µM | BT-549 6.22 µM | IGROV-1 8.99 µM | RPMI-8226 2.21 µM | U-251 2.41 µM | SK-OV-3 11.2 µM | HCT-116 2.26 µM | OVCAR-3 11.9 µM

CN(C)/C(=N/C(=O)Nc1ccccc1)SCc1ccccc1
inactive: OVCAR-5 > 100 µM | UO-31 > 100 µM | DMS-273 > 100 µM | TK-10 > 100 µM | SK-MEL-5 > 100 µM | Malme-3M > 100 µM | HCC 2998 > 100 µM | HT-29 > 100 µM | CAKI-1 > 100 µM | IGROV-1 > 100 µM | RPMI-8226 > 100 µM | U-251 > 100 µM | SK-OV-3 > 100 µM | OVCAR-3 > 100 µM

O=C(O)c1ccccc1C(=O)c1ccc2c(c1)Cc1ccccc1-2
inactive: OVCAR-5 > 100 µM | UO-31 > 100 µM | PC-3 66.4 µM | TK-10 52.1 µM | SK-MEL-5 > 100 µM | Malme-3M 80.9 µM | NCI/ADR-RES 99.1 µM | HCC 2998 28.1 µM | T47D 80.4 µM | HT-29 48.8 µM | SR 91.6 µM | CAKI-1 > 100 µM | BT-549 78.9 µM | IGROV-1 > 100 µM | RPMI-8226 60.8 µM | U-251 54 µM | SK-OV-3 > 100 µM | HCT-116 73.5 µM | OVCAR-3 > 100 µM

CN(/N=C\c1ccc2ccccc2c1)C1=NCCCCN1
inactive: OVCAR-5 36.5 µM | UO-31 13.8 µM | PC-3 16.7 µM | TK-10 20.2 µM | SK-MEL-5 13.8 µM | Malme-3M 14.9 µM | NCI/ADR-RES 26.7 µM | HCC 2998 14.5 µM | T47D 31.6 µM | HT-29 16.1 µM | SR 21.2 µM | CAKI-1 11.8 µM | BT-549 14.6 µM | IGROV-1 26.5 µM | RPMI-8226 19.8 µM | U-251 18 µM | SK-OV-3 22.1 µM | HCT-116 24.9 µM | OVCAR-3 36.5 µM

O=c1oc2ccc(Cl)cc2cc1-c1cn2ccccc2n1
inactive: OVCAR-5 57.5 µM | UO-31 4.72 µM | PC-3 > 72.9 µM | TK-10 14.8 µM | SK-MEL-5 > 100 µM | Malme-3M 3.46 µM | NCI/ADR-RES 17.9 µM | HCC 2998 > 100 µM | T47D > 61.2 µM | HT-29 17.7 µM | SR 32.9 µM | CAKI-1 15.2 µM | BT-549 34.5 µM | IGROV-1 29.2 µM | RPMI-8226 80.9 µM | U-251 3.93 µM | SK-OV-3 2.14 µM | HCT-116 6.64 µM | OVCAR-3 33.7 µM

CC1C/C(=N\N(C)C)C(C#N)(C#N)C1(C#N)C#N (configuration not stated)
inactive: OVCAR-5 21.6 µM | UO-31 15.6 µM | PC-3 20.8 µM | TK-10 13.6 µM | SK-MEL-5 18.7 µM | Malme-3M 7.6 µM | NCI/ADR-RES 25.8 µM | HCC 2998 17 µM | T47D 10.8 µM | HT-29 6.53 µM | SR 2.82 µM | CAKI-1 1.75 µM | BT-549 4.57 µM | IGROV-1 20.6 µM | RPMI-8226 3.92 µM | U-251 18.7 µM | SK-OV-3 > 46.9 µM | HCT-116 9.48 µM | OVCAR-3 13.2 µM

CN(CCCN(C)Cc1ccc(Cl)c(Cl)c1)CCN1CCCC1
inactive: OVCAR-5 28.7 µM | UO-31 4.78 µM | PC-3 28.2 µM | TK-10 24.2 µM | SK-MEL-5 6.92 µM | Malme-3M 15.8 µM | NCI/ADR-RES > 66.5 µM | HCC 2998 3.5 µM | T47D 29.9 µM | HT-29 4.13 µM | SR 8.45 µM | CAKI-1 29.2 µM | BT-549 30.8 µM | IGROV-1 27.7 µM | RPMI-8226 4.28 µM | U-251 16.8 µM | SK-OV-3 75.3 µM | HCT-116 12 µM | OVCAR-3 60.3 µM
